# Experimental data from patent US12053452B2 (priority 2021, dated 2024).
# Where two headings read alike, the source gives them in different places.
# Experiments:
# C57 mice [1] = conditions: mouse, in vivo; for locomotor activity: ip
# BTBR mice [2] = assay: Social novelty preference test, BTBR (autism spectrum disorder model); assay type: in vivo; conditions: BTBR mice
# Experimental: (§1) This assay was conducted in adult male C57 and BTBR mice (n=6 per group) in a dedicated conditioning room where ambient light, sound, and human contact were tightly controlled. Social preference chambers consist of two polycarbonate boxes (13.5 cm wide×22.5 cm tall×31.0 cm deep), floored with rough-textured black ABS plastic, and connected to one another by a 1.25″ PVC T-junction. An infrared photobeam emitter/detector array is mounted at each intersection of the T-junction and each preference compartment, and as a mouse traversed the apparatus, it would break the photobeam upon entry to or exit from each preference compartment. Beam breaks started or stopped a counter on an interfaced computer, allowing automated collection of time spent in each compartment. At the end of each test, data were reported as time (in seconds) spent in each compartment, the number of entries into each compartment, and the average time spent in each compartment following an entry. Social preference tests were conducted in an iterative manner, with each test subject completing four distinct phases as described below. Between testing sessions, chambers were sanitized by wiping the insides with a disinfectant product provided by the UAMS Department of Laboratory Animal Medicine. At the end of the week (upon completion of all phases of the procedure), each apparatus was disassembled and all parts were sanitized. No food or water were available during social preference sessions, but were available in the home cage immediately afterwards.
# A single social novelty preference session occurred the day after the sociability test, where one compartment contained a wire mesh cup with the same NIH Swiss mouse from the previous day inside (referred to now as the “familiar” mouse) while the other compartment contained a new male NIH Swiss stranger mouse inside the cup which previously contained the dummy mouse during the sociability test. […]
# C57 mice [3] = assay: Radiotelemetry of core temperature, C57; assay type: in vivo
# Experimental: (§2) The radiotelemetry assay was conducted in adult male C57 and BTBR mice (n=6 per group) in a dedicated testing room where ambient light, sound, and human contact were tightly controlled.
# (§3) Prior to surgical implantation of radiotelemetry probes, mice received 3 mg/kg meloxicam (IP), and anesthesia was induced with 4% inhaled isoflurane and maintained with 1-3% isoflurane (as needed) throughout the procedure at a flow rate of 1.5 litres/minute. The abdominal area of each animal was treated with depilatory cream, then sanitized with 3 alternating scrubs with iodine and alcohol. A rostral-caudal cut approximately 1.5 cm in length was made with sterile skin scissors, providing access to the intraperitoneal cavity. A cylindrical glass-encapsulated radiotelemetry probe (model ER-4000 E-Mitter, Mini Mitter, Bend, OR, USA) was then inserted. These probes measure 15.5 mm×6.5 mm and weigh approximately 1 gram. Incisions were closed (skin layer and muscle layer separately) using reverse cutting 5-0 Vicryl absorbable sutures for the muscle layer and 5-0 nylon suture material for the skin layer. Surgeries were carried out at least 7 days before initiation of experimental conditions, allowing time for incisions to heal and for animals to recover normal body weights. Following surgery, all implanted mice were individually housed in Plexiglas cages within the telemetry room for the duration of all experiments. Implanted transmitters produce activity- and temperature-modulated signals which are sent to a receiver (model ER-4000 Receiver, Mini Mitter Co., Inc.) underneath each cage. Following use, telemetry probes were removed from carcasses, wiped with alcohol swabs, and stored in the disinfectant solution until re-use.
# (§4) At least 7 days after surgical implantation of radiotelemetry probes, mice in their individual home cages were placed atop a telemetry energizer/receiver, which powered probes and transmitted their data to an interfaced computer. Upon initiation of an experimental session, the computer collected two data updates from the probes at 5 min intervals: core temperature (in ° C.) on one channel, and locomotor counts (in arbitrary units, depending on the relative position of the probe atop the receiver) on the other. After at least 60 minutes of baseline data collection, mice were removed from their cages, injected with saline or a given dose of a specific drug, then returned to the home cage 24 hours of data collection.
# (§5) Food and water were always freely available in the home cage. Mice were injected with ascending doses of a given drug, with at least 48 hours separating doses. Because there are few studies of drug effects in BTBR mice, the first drug dose tested occasionally elicited unexpectedly large locomotor effects in these animals. In these cases, smaller drug doses were tested next, after a washout period of at least one full day.
# C57 mice [4] = assay: Social novelty preference test, C57; assay type: in vivo
# Experimental: as §1
# A single social novelty preference session occurred the day after the sociability test, where one compartment contained a wire mesh cup with the same NIH Swiss mouse from the previous day inside (referred to now as the “familiar” mouse) while the other compartment contained a new male NIH Swiss stranger mouse inside the cup which previously contained the dummy mouse during the sociability test. […] The position of the now familiar NIH Swiss mouse (left or right compartment) remained the same for each subject as during the sociability test the day before, thereby counterbalancing the position of the new NIH Swiss stranger mouse across subjects. As before, the new NIH Swiss stranger mice were housed separately from the experimental subjects (C57 and BTBR mice) in the colony facility, and the first time the experimental subjects ever encountered them was when they entered the compartment where they were contained. During this session, mice were weighed, administered the same injection as the day before, and returned to their home cage for a 30 min pretreatment period. Mice were then introduced into the T-junction and allowed to explore both preference compartments for 15 minutes. Social novelty tests always occurred on Thursdays or Fridays to prevent any weekend testing.
# BTBR mice [5] = assay: Radiotelemetry of core temperature, BTBR; assay type: in vivo
# Experimental: as §2, §3, §4, §5
# BTBR mice [6] = assay: Novelty preference test, BTBR; assay type: in vivo; conditions: all tested doses IP
# Experimental: as §1, with “At the end of the week (upon completion of all phases of the procedure), each apparatus was disassembled and all parts were sanitized. No food or water were available during social preference sessions, but were available in the home cage immediately afterwards.” left out
structure (smiles),measurement,setting,value
"CNC(C)Cc1ccc2c(c1)OCO2 (racemic) [racemic MDMA, 1-(1,3-benzodioxol-5-yl)-N-methylpropan-2-amine]",locomotor dose-effect curve (total ambulatory activity),C57 mice [1],classical “inverted U-shaped” dose-effect curve
same,pattern of locomotor activity across the time course,C57 mice [1],consistent with motor stereotypy
same,stereotypy or hyperstimulation of mice,C57 mice [1],stereotypy or hyperstimulation of mice is seen
same,locomotor activity,C57 mice [1]; 10 mg/kg,lesser hyperactivity is observed
same,locomotor activity,C57 mice [1]; 30 mg/kg,elicit more activity than the pure S(+)-MDMA
same,social novelty preference (new stranger mouse vs familiar mouse),BTBR mice [2]; all doses IP,exhibiting preferences for the stranger mouse
same,effect on core temperature,C57 mice [3]; 10 mg/kg IP,induced a drop in core temperature
same,rise in core temperature,C57 mice [3]; 56 mg/kg IP,~2 degrees C.
same,effect on core temperature,C57 mice [3]; various/increasing doses IP,gradual increase in core temperature
same,social novelty preference (new stranger mouse vs familiar mouse),"C57 mice [4]; 3.0 mg/kg IP, 3 mg/kg",strong preference for the stranger over the now familiar mouse
same,social novelty preference (new stranger mouse vs familiar mouse),"C57 mice [4]; 3.0 mg/kg IP, listed as racemic (50/50) MDMA, 3 mg/kg",elicit significant effects on sociability
same,social novelty preference (new stranger mouse vs familiar mouse),C57 mice [4]; various doses IP,dose-dependent increase in time spent with the stranger mouse
same,social novelty preference (new stranger mouse vs familiar mouse),"C57 mice [4]; various doses IP, listed as Racemic MDMA","bi-phasic dose-response preference for stranger mouse over familiar mouse, with maximum preference documented at 3 mg/kg dose"
same,effect on core temperature,BTBR mice [5]; 30 mg/kg IP,results in an increase in temperature but is not as significant as S-MDMA
same,rise in core temperature,BTBR mice [5]; 56 mg/kg IP,~2 degrees C.
same,effect on core temperature,BTBR mice [5]; various/increasing doses IP,gradual increase in core temperature
same,effect on core temperature,"BTBR mice [5]; various/increasing doses IP, listed as racemic compositions of MDMA",dose dependent increase in temperature
same,novelty preference (time spent with the dummy mouse),BTBR mice [6],No dose of racemic MDMA (e.g comparative composition 1) or S(+)-MDMA (e.g comparative composition 3) elicited any effects on novelty preference
"CN[C@@H](C)Cc1ccc2c(c1)OCO2 [S(+)-MDMA, (2S)-1-(1,3-benzodioxol-5-yl)-N-methylpropan-2-amine]",locomotor dose-effect curve (total ambulatory activity),C57 mice [1],classical “inverted U-shaped” dose-effect curve
same,stereotypy or hyperstimulation of mice,C57 mice [1],stereotypy or hyperstimulation of mice is seen
same,locomotor activity,C57 mice [1]; 10 mg/kg,elicits the greatest locomotor stimulation
same,social novelty preference (new stranger mouse vs familiar mouse),BTBR mice [2]; 3.0 mg/kg IP,elicited a strong preference for the stranger mouse
same,effect on core temperature,C57 mice [3]; 10 mg/kg IP,elicited an increase in temperature
same,jump in core temperature,C57 mice [3]; 18 mg/kg i.p,greater than that observed by administration of 56 mg/kg i.p of Racemic MDMA
same,effect on core temperature,C57 mice [3]; 30 mg/kg IP,elicits significant hyperthermia
same,lethality during core temperature recording,C57 mice [3]; approximately 5-8 hrs after injection,one animal experiencing profound hypothermia before expiring
same,effect on core temperature,C57 mice [3]; various/increasing doses IP,dose-dependent increase in temperature
same,social novelty preference (new stranger mouse vs familiar mouse),C57 mice [4]; 3.0 mg/kg IP,not different from saline
same,social novelty preference (new stranger mouse vs familiar mouse),C57 mice [4]; 3.0 mg/kg and 5.6 mg/kg IP,does not elicit any substantial preference for the stranger mouse
same,social novelty preference (new stranger mouse vs familiar mouse),C57 mice [4]; various doses IP,no systematic effects on social novelty preference
same,effect on core temperature,"BTBR mice [5]; 10 mg/kg IP, 10 mg/kg",elicited a similar increase in temperature
same,effect on core temperature,"BTBR mice [5]; 10 mg/kg IP, listed as S-MDMA, 10 mg/kg",did not differ much from that observed with Racemic MDMA
same,jump in core temperature,BTBR mice [5]; 18 mg/kg i.p,greater than that observed by administration of 56 mg/kg i.p of Racemic MDMA
same,effect on core temperature,"BTBR mice [5]; 30 mg/kg IP, 30 mg/kg",elicited a large hyperthermic response
same,effect on core temperature,"BTBR mice [5]; 30 mg/kg IP, listed as S-MDMA, 30 mg/kg",strong hyperthermic response
same,effect on core temperature,BTBR mice [5]; various/increasing doses IP,dose dependent increase in temperature
same,effect on core temperature,"BTBR mice [5]; various/increasing doses IP, listed as S-MDMA",dose-dependent increase in temperature
same,novelty preference (time spent with the dummy mouse),BTBR mice [6],No dose of racemic MDMA (e.g comparative composition 1) or S(+)-MDMA (e.g comparative composition 3) elicited any effects on novelty preference
